# From patent US20190284136A1, “INDOLINE DERIVATIVES” (ViiV HEALTHCARE UK LIMITED, priority 2016, published 2019)
# pIC50: −log10 of the molar value.
# System: HIV
# Experiment: Table 1 IC50 of the examples (assay method not given; patent concerns inhibiting HIV replication)
# Format: cell-based
# Details: Human immunodeficiency virus 1
row,SMILES,pIC50
1,"Cc1ccc(-c2c3c(cc(C)c2[C@H](OC(C)(C)C)C(=O)O)N(C(=O)CC2CCCCC2)CC3)cc1 [Example 25, (S)-2-(tert-Butoxy)-2-(1-(2-cyclohexylacetyl)-6-methyl-4-(p-tolyl)indolin-5-yl)acetic acid]",7.37
2,"Cc1cc2c(c(-c3cc(F)c4c(c3C)CCCO4)c1[C@H](OC(C)(C)C)C(=O)O)CCN2C(=O)C(C)(C)C (atropisomer, axis not shown) [Example 120, (S)-2-(tert-Butoxy)-2-((R)-4-(8-fluoro-5-methylchroman-6-yl)-6-methyl-1-pivaloylindolin-5-yl)acetic acid]",7.04
